The source of these data is ChEMBL document CHEMBL1124722, “Synthesis and anticonvulsant activity of 2-benzylglutarimides” (J Med Chem, 1990).

The subject of data set [1] is Rattus norvegicus. Briefly: The effective dose of compound was tested against maximal electroshock induced seizures after oral administration in rat. The format is functional.
Data set [2] concerns Mus musculus. Briefly: Anticonvulsant activity against subcutaneous picrotoxin induced seizures after intraperitoneal administration. The format is functional.
The test system of data set [3] is Mus musculus. Briefly: The effective dose of compound was tested against maximal electroshock induced seizures after oral administration in mice. The format is functional. For orientation: Protection in the maximal electroshock model is a classic sign of anticonvulsant action.
Data set [4] in a line: Protective index was calculated (TD50/ED50) in MES assay in rat after oral administration. The format is functional.
The species named for data set [5] is Mus musculus. Description: Median lethal dose was measured after 24 hr. The data set is classed as functional.
A short description of data set [6]: The cytotoxicity after intraperitoneal administration. The format is organism-based. To be noted: mouse, in vivo, ip.
Data set [7] relates to Mus musculus. Briefly: The effective dose of compound was tested against subcutaneous administered Metrazol induced seizures after intraperitoneal administration. The data set is classed as functional.
A short description of data set [8]: Protective index was calculated (TD50/ED50) in scMET assay in mice after intraperitoneal administration. The data set is classed as functional.
A short description of data set [9]: Ratio of LD50/HD50 was determined. The data set is classed as functional.
Data set [10] deals with Mus musculus. Description: Anticonvulsant activity against subcutaneous administered Metrazol induced seizures (scMET) after 4 hr at 300 mg/kg; Active. The data set is classed as functional, organism-based. The arrangement: dose 300 mg/kg.
Data set [11] concerns Mus musculus. Briefly: The compound was tested for anticonvulsant activity against (subcutaneous administered) bicuculline induced seizures after intraperitoneal administration. The data set is classed as functional.
Data set [12] can be described thus: The cytotoxicity (given orally) […] in mice. The format is organism-based. The settings on record: mouse, in vivo.
Data set [13] concerns Mus musculus. Description: The compound was tested for anticonvulsant activity against (subcutaneous administered) strychnine induced seizures after intraperitoneal administration. The format is functional.
Data set [14] relates to Mus musculus. Briefly: Anticonvulsant activity against maximal electroshock induced seizures (MES) after 4 hr at 300 mg/kg; Active. The format is functional, organism-based. Set-up: dose 300 mg/kg.
A short description of data set [15]: The cytotoxicity (given orally) […] in rat. The data set is classed as organism-based. To be noted: in vivo.
The nature of data set [16]: Protective index was calculated (TD50/ED50) in scMET assay in mice after oral administration. The data set is classed as functional.
Data set [17] relates to Mus musculus. Description: The compound was tested for anticonvulsant activity against (subcutaneous administered) Metrazol induced seizures after intraperitoneal administration. The format is functional.
The species entered for data set [18] is Mus musculus. Description: Time of peak effect toxicity against maximal electroshock induced seizures. The format is organism-based. The settings on record: in vivo.
The nature of data set [19]: Protective index was calculated (TD50/ED50) in scMET assay in rat after oral administration. The data set is classed as functional.
A short description of data set [20]: Protective index was calculated (TD50/ED50) in MES assay in mice after oral administration. The data set is classed as functional.
The nature of data set [21]: Protective index was calculated (TD50/ED50) in MES assay in mice after intraperitoneal administration. The data set is classed as functional.
Data set [22] deals with Mus musculus. Description: The effective dose of compound (given orally) was tested against subcutaneous administered Metrazol induced seizures in mice. The data set is classed as functional.
For data set [23], the system named is Mus musculus. Briefly: The Neurologic toxicity by measuring rotarod test after 4 hr; No toxicity up to 300 mg/kg. The data set is classed as organism-based. Set-up: dose 300 mg/kg. To be noted: in vivo. (In general: The rotarod test checks motor coordination on a turning rod.)
Data set [24] has as its system Rattus norvegicus. Briefly: The effective dose of compound (given orally) was tested against subcutaneous administered Metrazol induced seizures in rat. The data set is classed as functional.
Data set [25] has as its system Mus musculus. Briefly: Anticonvulsant activity against maximal electroshock induced seizures (MES) after 0.5 hr at 300 mg/kg; Active. The data set is classed as functional, organism-based. The arrangement: dose 300 mg/kg.
Data set [26] concerns Mus musculus. Description: Anticonvulsant activity against subcutaneous administered Metrazol induced seizures (scMET) after 0.5 hr at 30 mg/kg; Active. The format is functional, organism-based. Set-up: dose 30 mg/kg.
Data set [27] deals with Mus musculus. Description: The effective dose of compound was tested against maximal electroshock induced seizures after intraperitoneal administration. The format is functional. To be noted: ip.
The species entered for data set [28] is Mus musculus. Description: Time of peak effect activity against maximal electroshock induced seizures. The format is functional.
For data set [29], the system named is Mus musculus. Briefly: The Neurologic toxicity by measuring rotarod test after 0.5 h; No toxicity up to 300 mg/kg. The format is organism-based. Set-up: dose 300 mg/kg. To be noted: in vivo.
For data set [30], the species on record is Mus musculus. Description: Median hypnotic dose by loss of righting reflex. The data set is classed as functional.
The nature of data set [31]: Protective index was calculated (TD50/ED50) in scMet assay in mice after intraperitoneal administration. The data set is classed as functional.
Data set [32] concerns Mus musculus. Description: The effective dose of compound was tested against maximal electroshock induced seizures after intraperitoneal administration; Not active up to 300 mg/kg. The data set is classed as functional, organism-based. Set-up: dose 300 mg/kg.
For data set [33], the system named is Mus musculus. Briefly: The effective dose of compound was tested against subcutaneous administered Metrazol induced seizures after intraperitoneal administration. The data set is classed as functional.
Data set [34] deals with Mus musculus. Briefly: Anticonvulsant activity against maximal electroshock induced seizures after 4 hr; Not active up to 300 mg/kg. The format is functional, organism-based. Set-up: dose 300 mg/kg.
The species entered for data set [35] is Mus musculus. Description: Time of peak effect was determined for activity in MES. Set-up: unit not given here. The format is functional.
For data set [36], the system named is Mus musculus. Briefly: Anticonvulsant activity against maximal electroshock induced seizures (MES) after 0.5 h; Not active up to 300 mg/kg. The format is functional, organism-based. The arrangement: dose 300 mg/kg.
Data set [37] has as its system Mus musculus. Briefly: Anticonvulsant activity against subcutaneous administered Metrazol induced seizures (scMET) after 0.5 hr at 300 mg/kg; Active. The arrangement: dose 300 mg/kg. The data set is classed as functional, organism-based.

In general, ED50 refers to the midpoint of the dose-response relation. The term LD50 denotes the dose expected to kill half of the subjects tested. What is called TD50 is the 50% point of the dose-response relation for the toxic effect studied.

Each structure is given as a SMILES string. The source made the active and inactive calls. The calls are words filed in the database; no cut-off is given here.

With `O=C1CCC(Cc2ccc(Cl)cc2)C(=O)N1` (stereo unspecified), the median effective dose (ED50) with Rattus norvegicus [1] is 58.3 mg/kg; in the data set with Mus musculus [2], 158 mg/kg; in the data set with Mus musculus [3] it was 579 mg/kg; with Mus musculus [7] it was 72.8 mg/kg; in the data set with Mus musculus [11], 249 mg/kg; in the data set with Mus musculus [13] it was 232 mg/kg. In addition, the 50% effective dose (ED50) is 72.8 mg/kg with Mus musculus [17], 274 mg/kg in the data set with Mus musculus [22], 36.4 mg/kg in the data set with Rattus norvegicus [24] and 137 mg/kg in the data set on Mus musculus [27]. Also, the Ratio in data set [4] is 1.17; in data set [8], 16.82; in data set [9], more than 1.87; in data set [16], more than 10.95; in data set [19] it was 1.87; in data set [20] it was more than 5.18. Moreover, the Ratio in data set [21] was 8.95. The same compound displayed an LD50 in the data set listed under Mus musculus [5] of more than 2400 mg/kg. Besides, the TD50 in data set [6] was 1220 mg/kg; in data set [12], more than 3000 mg/kg; in data set [15] it was 68.2 mg/kg. In addition, the result in the data set with Mus musculus [10], with Mus musculus [14], in the data set on Mus musculus [25] and in the data set on Mus musculus [26] was Active. Besides, the TPE in the data set listed under Mus musculus [18] was 1; in the data set listed under Mus musculus [28], 0.5. Further, the Toxicity result with Mus musculus [23] and in the data set with Mus musculus [29] was “No toxicity up to 300 mg/kg” throughout. This compound also returned an HD50 in the data set listed under Mus musculus [30] of 1282.47 mg/kg.

Turning to `O=C1CCC(Cc2ccc(I)cc2)C(=O)N1` (stereo unspecified), in data set [31], the Ratio was more than 12.04. The same compound showed a TD50 in data set [6] of more than 1050 mg/kg. The ED50 result with Mus musculus [32] was “Not active up to 300 mg/kg”; in the data set on Mus musculus [33], 87.2 mg/kg. Also, the result in the data set with Mus musculus [10] and with Mus musculus [37] was Active. In addition, the Toxicity result in the data set with Mus musculus [23] and in the data set with Mus musculus [29] was “No toxicity up to 300 mg/kg” in each case. The outcome in the data set with Mus musculus [34] and in the data set with Mus musculus [36] was inactive. The TPE in the data set listed under Mus musculus [35] was determined as 1.
